Results from patent US20260034218A1, “ALLEVIATING GRAFT VERSUS HOST DISEASE USING ENGINEERED INKT CELLS” (The Regents of the University of California, priority 2022, published 2026).

Experiments:
HSC-iNKT cells [1] = assay: GCV in vitro killing assay; assay type: cell-based, human; conditions: GCV 0-50 μM, 4 days
Procedure: (§1) To increase the safety profile of HSC-iNKT cell product, we included an sr39TK PET imaging/suicide gene in the lentiviral vector, which allows for the in vivo monitoring of these cells using PET imaging and the elimination of these cells through ganciclovir (GCV)-induced depletion in case of an adverse event (FIGS S1A and 1B in Li et al.).
For GCV in vitro killing assays, HSC-iNKT cells were cultured in C10 medium in the presence of titrated amount of GCV (0-50 μM) for 4 days; live HSC-iNKT cells were then counted using a hematocytometer (VWR) via Trypan Blue staining (Fisher Scientific).

HSC-iNKT cells [2] = assay: GCV in vivo killing assay, NSG xenograft mouse model; set-up: species or system human cells in NSG mice; conditions: GCV i.p. 50 mg/kg per day, 5 days
Procedure: as §1
GCV in vivo killing assay was performed using an NSG xenograft mouse model. NSG mice received i.v. injection of 1×10^7 HSC-iNKT cells on day 0, followed by i.p. injection of GCV for 5 consecutive days (50 mg/kg per injection per day). On day 5, mice were terminated. Multiple tissues (i.e., blood, spleen, liver, and lung) were collected and processed for flow cytometry analysis to detect tissue-infiltrating HSC-iNKT cells (identified as iNKT TCR^+CD45^+), following established protocols (Li et al., 2021b; Y. R. Li et al., 2022; Zhu et al., 2019).

Nc1nc(O)c2ncn(COC(CO)CO)c2n1 [GCV, Ganciclovir]
killing of HSC-iNKT cells in cell culture (HSC-iNKT cells [1]): effective killing
depletion of HSC-iNKT cells from blood, liver, spleen and lung (HSC-iNKT cells [2]): efficient depletion
